In patent publication US12421489B2, “Biological control of plant pathogenic microorganisms” (priority 2016, dated 2025):

Legend:
Format in all cases: in vivo
[1] = tested on: Pseudomonas syringae pv. actinidiae (Psa); test: Field trials 2015-16: foliar sprays on ‘Hayward’ vines, Blocks B and C, Maketu; conditions: mean of Blocks B and C
Description: Grower standard treatment: Kocide Opti+1×Kasumin
Two field trial sites were established during spring 2015 with the intention of running across two consecutive seasons. The two ‘Hayward’ blocks (coded Block B and C) were located in separate orchards, near Maketu, Bay of Plenty. Block C was the same orchard as the 2014-15 trial, but a different area in the blocks was used. Vines in all blocks were pergola trained with a single vine per bay. The vines generally looked healthy at the commencement of the trial, but had suffered from significant Psa symptoms 2-3 years previously, according to the grower.
The spray treatments were applied to individual vines (eight replicates per treatment) laid out in a randomised block design. The treatments were: • 1. Nil—no Psa control products applied during the growing season • 2. Grower standard—copper-based foliar spray programme, including up to one antibiotic spray • 3. YBCA5—yeast-based foliar spray programme (2×10^7 CFU/mL)
Spray applications in the Grower standard and YBCA5 treatments were applied according to the schedule in Table 5. Common agricultural adjuvants were added to the Grower standard (0.04% Du-Wett®) and YBCA5 (0.03% Nu-Film-17@) applications.
The YBCA5 yeast was produced by liquid fermentation, sourced from three separate production facilities: PFR (Ruakura), AgResearch (Lincoln) and Callaghan Innovation (Lower Hutt). A concentrated yeast pellet after centrifugation was supplied to the laboratory at Ruakura and this was mixed with an inert carrier and extruded to form granules which were air dried overnight in a laminar flow hood. The number of colony forming units/g was calculated by dissolving 0.2 g samples into 20 mL phosphate buffered saline amended with 0.05% Tween 80 (PBSTw). This was serially diluted and 10-μL droplets of each dilution were transferred to Petri dishes with malt yeast extract agar amended with chloramphenicol. Petri dishes were incubated for 24 h at 25° C. and then 4-6° C. for a further 24 h, prior to counting the number of colonies. […]
Psa disease assessments were carried out in the ‘Hayward’ blocks just prior to flowering on 11 Nov. […] Assessments were commenced after taking one step (i.e. 1 m) from the edge of the plot and a set of 25 leaves were scored. […] This was then repeated down the other side of the vine so that four sets of 25 leaves (total=100) were scored within each plot. Similarly, 100 buds/plot were scored for the severity of bud-browning, as described above.
Data were expressed as Psa incidence (based on the proportion of leaves with Psa spotting/proportion of buds with brown sepals) and average Psa severity (mean % leaf area necrotic/mean number of brown sepals on buds). Data were log-transformed and analysed by ANOVA using Genstat (ver. 16) to determine treatment differences. […]

[2] = tested on: Botrytis spp.; test: Cherry inoculation assays 2 and 4: Botrytis spp. fruit rot of ‘Sweet Valentine’ cherries, dip treatment; conditions: Assay 4, cherries, cumulative after 16 days; nil 67%; not significantly reduced (P>0.05)
Experimental: (§1) Fruit-based screening assays were conducted in laboratories at the Plant and Food Research Ruakura Research Centre, Hamilton, New Zealand (PFR). PFR assays focused on dip treatment application of YBCA5 and fungicide controls.
(§2) Fruit for Monilinia fructicola and Botrytis spp. inoculation assays were carried out on sweet cherries (Prunus avium ‘Sweet Valentine’) that were picked at the harvest mature stage and sourced from the PFR Clyde Research Orchard in Central Otago on 8 Jan. 2016 for fruit based assays 1 and 2. A second harvest was carried out on 13 Jan. 2016 for fruit based assays 3 and 4.
(§3) Each cherry was then subjected to a double wash process. Wash one consisted of 10 minutes in tap water on a rotary shaker (110 rpm) followed by a five minute wash in SDW (Wash 2). […]
A Botrytis spp. culture (isolate code 09-2), which had been originally isolated from an infected kiwifruit located in the Bay of Plenty region during the 2000s, was used for the spray inoculation assays included in this section carried out on cherries. […] This stock suspension was then filtered using a 70 μm cell strainer (70 μm mesh) to remove mycelial fragments, the concentration determined using a haemocytometer and then adjusted, by dilution with SDW+Tw 80 (0.01% v/v) to a final concentration of 1×10^5 conidia/mL. […]

[3] = tested on: Botrytis spp.; test: Grape inoculation assay 5: Botrytis spp. rot of wounded table grape berries; conditions: Assay 5, wounded table grapes, 9 days, mean of two Botrytis spp. isolates; nil 30%; significantly reduced (P<0.001)
Experimental: Fruit assays were carried out on detached white table grape berries (‘Thompson seedless’—Assay 5), imported from California that were sourced from a local supermarket in Hamilton. Each berry was detached from the bunch with 3-4 mm of pedicel remaining and then subjected to a double wash process. Wash one consisted of 10 minutes in tap water on a rotary shaker (110 rpm) followed by a five minute wash in SDW (Wash 2). All berries were placed onto sterile black plastic grids in a sterile plastic meat tray with two sterile paper towels and were allowed to dry in a laminar flow hood. Each berry was lightly wounded with the aid of fine sandpaper, Grade P220, then dipped in the treatments for 60 seconds and again allowed to dry.
YBCA5 granules were prepared by fermenting the yeast for 3 days in a 10 L bioreactor (Labfors) using sterile liquid media (4% molasses and 1.2 g/L urea). […]
Botrytis spp. inoculum was prepared by growing each isolate of Botrytis spp. for 5-7 days on PDA (DIFCO, Fort Richard) medium and harvesting the conidia by washing the plate with SDW plus Tween 80 (0.01%) to make a stock suspension of inoculum. This stock suspension was then filtered using a cell strainer (70 μm mesh, Falcon) to remove mycelial fragments, the concentration determined using a haemocytometer and adjusted to the required concentration (2×10^4 conidia/mL) equivalent to 200 conidia in each 10 μL droplet. […]

[4] = tested on: Monilinia fructicola; test: Cherry inoculation assays 1 and 3: Monilinia fruit rot of ‘Sweet Valentine’ cherries, dip treatment; conditions: Assay 3, cherries, cumulative after 16 days; Nil 88%; YBCA5 not significant (P>0.05), captan P<0.001
Experimental: as §1, §2, §3
A Monilinia fructicola culture (isolate code MFGQ3), which had been originally isolated from an infected peach tree located in the Hamilton region during 1998, was used for the spray inoculation assays included in this section (Ruakura based assay). […] This stock suspension was then filtered using a 70 μm cell strainer (to remove mycelial fragments), the concentration determined using a haemocytometer and then adjusted, by dilution with SDW+Tw 80 (0.05%) to a final concentration of 1×10^4 conidia/mL. […]

| SMILES | Severity of spotting (% leaf area) ([1]; assessed Nov. 11, 2015, Nil control 0.24, LSD 0.099) [b % leaf area] | Severity of bud browning (No. sepals) ([1]; assessed Nov. 11, 2015, Nil control 1.29, LSD 0.226) [b No. sepals] | % leaves with spotting (incidence) ([1]; assessed Nov. 11, 2015, Nil control 50, LSD 8.0) [b %] | % buds with necrosis (incidence) ([1]; assessed Nov. 11, 2015, Nil control 61, LSD 9.9) [b %] | incidence of Botrytis spp. fruit rot [2] [%] | incidence of Botrytis spp. fruit rot [3] [%] | incidence of Monilinia fruit rot [4] [%] |
| --- | --- | --- | --- | --- | --- | --- | --- |
| [Cu+2].[OH-].[OH-] [Kocide Opti, Copper Hydroxide] | 0.07 | 0.80 | 27 | 45 | – | – | – |
| O=C1C2CC=CCC2C(=O)N1SC(Cl)(Cl)Cl (stereo not shown) [captan] | – | – | – | – | 43 | 10 | 12 |
